Experiments:
[1] = The drug is tested on Z-027 corresponding to metagenome with ENA study accession number: PRJEB37062 and ENA sample accession number: ERS12561826 for biotransformation under anaerobic condition. The drug concentrations were measured over 9 timepoints collected between 0 and 24 hours of incubation by liquid-chromatography-coupled mass spectrometry (LC–MS); details: 2 µM
[2] = The drug is tested on Z-013 corresponding to rabbit gut metagenome with ENA study accession number: PRJEB37062 and ENA sample accession number: ERS12561813 for biotransformation under anaerobic condition. The drug concentrations were measured over 9 timepoints collected between 0 and 24 hours of incubation by liquid-chromatography-coupled mass spectrometry (LC–MS); details: 2 µM
[3] = The drug is tested on Z-009 corresponding to pig gut metagenome with ENA study accession number: PRJEB37062 and ENA sample accession number: ERS12561809 for biotransformation under anaerobic condition. The drug concentrations were measured over 9 timepoints collected between 0 and 24 hours of incubation by liquid-chromatography-coupled mass spectrometry (LC–MS); details: 2 µM
[4] = The drug is tested on WLS-370 corresponding to human gut metagenome with ENA study accession number: PRJEB37062 and ENA sample accession number: ERS12561793 for biotransformation under anaerobic condition. The drug concentrations were measured over 9 timepoints collected between 0 and 24 hours of incubation by liquid-chromatography-coupled mass spectrometry (LC–MS); details: 2 µM
[5] = The drug is tested on WLS-220 corresponding to human gut metagenome with ENA study accession number: PRJEB37062 and ENA sample accession number: ERS12561769 for biotransformation under anaerobic condition. The drug concentrations were measured over 9 timepoints collected between 0 and 24 hours of incubation by liquid-chromatography-coupled mass spectrometry (LC–MS); details: 2 µM
[6] = The drug is tested on WLS-073 corresponding to human gut metagenome with ENA study accession number: PRJEB37062 and ENA sample accession number: ERS12561749 for biotransformation under anaerobic condition. The drug concentrations were measured over 9 timepoints collected between 0 and 24 hours of incubation by liquid-chromatography-coupled mass spectrometry (LC–MS); details: 2 µM
[7] = human gut metagenome, 24 h, 2 µM
[8] = human gut metagenome, 24 h, 2 µM; remark: listed apart in the source
[9] = human gut metagenome, 24 h, 2 µM; remark: listed apart in the source
[10] = human gut metagenome, 24 h, 2 µM; remark: listed apart in the source
[11] = human gut metagenome, 24 h, 2 µM; remark: listed apart in the source
[12] = human gut metagenome, 24 h, 2 µM; remark: listed apart in the source
[13] = human gut metagenome, 24 h, 2 µM; remark: listed apart in the source
[14] = human gut metagenome, 24 h, 2 µM; remark: listed apart in the source
[15] = human gut metagenome, 24 h, 2 µM; remark: listed apart in the source
[16] = The drug is tested on Z-006 corresponding to mouse gut metagenome with ENA study accession number: PRJEB37062 and ENA sample accession number: ERS12561806 for biotransformation under anaerobic condition. The drug concentrations were measured over 9 timepoints collected between 0 and 24 hours of incubation by liquid-chromatography-coupled mass spectrometry (LC–MS); details: 2 µM
[17] = human gut metagenome, 24 h, 2 µM; remark: listed apart in the source
[18] = The drug is tested on Z-010 corresponding to metagenome with ENA study accession number: PRJEB37062 and ENA sample accession number: ERS12561810 for biotransformation under anaerobic condition. The drug concentrations were measured over 9 timepoints collected between 0 and 24 hours of incubation by liquid-chromatography-coupled mass spectrometry (LC–MS); details: 2 µM
[19] = The drug is tested on Z-005 corresponding to metagenome with ENA study accession number: PRJEB37062 and ENA sample accession number: ERS12561805 for biotransformation under anaerobic condition. The drug concentrations were measured over 9 timepoints collected between 0 and 24 hours of incubation by liquid-chromatography-coupled mass spectrometry (LC–MS); details: 2 µM
Note: call rule not given here.

Row | SMILES | Bacterial Biotransformation [1] | Bacterial Biotransformation [2] | Bacterial Biotransformation [3] | Bacterial Biotransformation [4] | Bacterial Biotransformation [5] | Bacterial Biotransformation [6] | Bacterial Biotransformation [7] | Bacterial Biotransformation [8] | Bacterial Biotransformation [9] | Bacterial Biotransformation [10] | Bacterial Biotransformation [11] | Bacterial Biotransformation [12] | Bacterial Biotransformation [13] | Bacterial Biotransformation [14] | Bacterial Biotransformation [15] | Bacterial Biotransformation [16] | Bacterial Biotransformation [17] | Bacterial Biotransformation [18] | Bacterial Biotransformation [19]
1 | CN1CCc2cccc3c2[C@H]1Cc1ccc(O)c(O)c1-3 [APOMORPHINE] | Compound NOT metabolized | Compound metabolized | Compound metabolized | Compound NOT metabolized | Compound NOT metabolized | Compound NOT metabolized | Compound NOT metabolized | Compound NOT metabolized | Compound NOT metabolized | Compound NOT metabolized | Compound NOT metabolized | Compound NOT metabolized | Compound NOT metabolized | Compound NOT metabolized | Compound NOT metabolized | – | – | – | –
2 | C[C@@H]1CC[C@H]2[C@@H](C)C(=O)O[C@@H]3O[C@@]4(C)CC[C@@H]1[C@]32OO4 [ARTEMISININ] | Compound metabolized | – | – | Compound metabolized | Compound metabolized | Compound metabolized | Compound metabolized | Compound metabolized | Compound metabolized | Compound metabolized | Compound metabolized | Compound metabolized | Compound metabolized | Compound metabolized | Compound metabolized | Compound NOT metabolized | Compound metabolized | – | –
3 | OC(CCN1CCCCC1)(c1ccccc1)C1CC2C=CC1C2 (stereo unspecified) [BIPERIDEN] | – | – | – | Compound metabolized | Compound NOT metabolized | Compound NOT metabolized | Compound NOT metabolized | Compound NOT metabolized | Compound NOT metabolized | Compound NOT metabolized | Compound NOT metabolized | Compound metabolized | Compound metabolized | Compound metabolized | Compound NOT metabolized | – | Compound NOT metabolized | – | –
4 | C#C[C@]1(O)CC[C@H]2[C@@H]3CCC4=Cc5oncc5C[C@]4(C)[C@H]3CC[C@@]21C [DANAZOL] | Compound metabolized | – | – | – | Compound metabolized | Compound metabolized | – | – | – | Compound metabolized | – | – | Compound NOT metabolized | Compound metabolized | – | Compound metabolized | – | Compound metabolized | –
5 | CN1C[C@H](C(=O)N[C@]2(C)O[C@@]3(O)[C@@H]4CCCN4C(=O)[C@H](Cc4ccccc4)N3C2=O)C=C2c3cccc4[nH]cc(c34)C[C@H]21.CN1C[C@H](C(=O)N[C@]2(C)O[C@@]3(O)[C@@H]4CCCN4C(=O)[C@H](Cc4ccccc4)N3C2=O)C=C2c3cccc4[nH]cc(c34)C[C@H]21.O=C(O)C(O)C(O)C(=O)O [ERGOTAMINE TARTRATE] | – | – | – | Compound metabolized | – | Compound NOT metabolized | Compound NOT metabolized | Compound metabolized | Compound metabolized | Compound metabolized | Compound NOT metabolized | – | Compound metabolized | Compound metabolized | Compound metabolized | Compound NOT metabolized | Compound metabolized | – | Compound NOT metabolized
6 | COC(=O)C1=C(C)NC(C)=C(C(=O)OC(C)C)C1c1cccc2nonc12 (stereo unspecified) [ISRADIPINE] | – | – | – | Compound metabolized | Compound metabolized | Compound NOT metabolized | Compound metabolized | Compound metabolized | Compound metabolized | Compound NOT metabolized | Compound NOT metabolized | Compound metabolized | Compound metabolized | Compound metabolized | Compound NOT metabolized | – | Compound metabolized | – | –
7 | CN(C(=O)CN(CCO)CC(=O)N(C)C(C)(C)Cc1ccccc1)C(C)(C)Cc1ccccc1 [OXETHAZAINE] | – | – | – | Compound metabolized | Compound metabolized | Compound metabolized | Compound metabolized | Compound metabolized | Compound metabolized | Compound NOT metabolized | Compound NOT metabolized | Compound metabolized | Compound metabolized | Compound metabolized | Compound metabolized | – | Compound metabolized | – | –
8 | CN1CCN(CC/C=C2/c3ccccc3Sc3ccc(S(=O)(=O)N(C)C)cc32)CC1 [THIOTHIXENE] | – | – | – | Compound metabolized | Compound metabolized | Compound metabolized | Compound metabolized | Compound metabolized | Compound metabolized | Compound metabolized | Compound NOT metabolized | Compound metabolized | Compound metabolized | Compound metabolized | Compound metabolized | – | Compound metabolized | – | –
9 | CS(=O)(=O)O.O.O.O.O=C1Cc2cc(CCN3CCN(c4nsc5ccccc45)CC3)c(Cl)cc2N1 [ZIPRASIDONE MESYLATE] | – | – | – | Compound NOT metabolized | Compound metabolized | Compound metabolized | Compound NOT metabolized | Compound NOT metabolized | Compound NOT metabolized | Compound NOT metabolized | Compound metabolized | Compound metabolized | Compound NOT metabolized | Compound metabolized | Compound metabolized | – | Compound metabolized | – | –

Reference: ChEMBL document CHEMBL5724914, “Linking interpersonal differences in gut microbiota composition and drug biotransformation activity” (2024)
